Assay results published in patent US20080045512A1, “Benzoate salt of 4-(5-methyl-oxazolo[4,5-b]-pyridin-2-yl)-1,4-diazabicyclo[3.2.2]nonane” (Pfizer Inc., priority 2006, published 2008).
Structures can show the parent of a compound that is named as a salt.

Experiments:
[1] = Comparison of salts of Formula I: physical properties tested and observed; assay type: physicochemical
Procedure: Physical properties of various salts of Formula I were tested and observed.

[2] = cited from earlier work
[3] = cited from earlier work; remark: listed apart in the source
[4] = Hygroscopicity by dynamic vapor sorption (isothermal moisture sorption analysis); assay type: physicochemical; settings: for hygroscopicity (result in words): dynamic vapor sorption, 25° C.
Procedure: Hygroscopicity was assessed using a dynamic vapor sorption technique in which an accurately weighed sample is subjected to progressively changing water vapor pressure while simultaneously recording the weight change. The experiment is conducted isothermally at 25° C.
For 4-(5-methyloxazolo[4,5-b]pyridin-2-yl)-1,4-diazabicyclo[3.2.2]nonane benzoate Form A, less than 0.1% increase in weight was detected at 90±2% relative humidity during an isothermal (24.9±0.1° C.) moisture sorption analysis conducted from approximately 1% to 90% (±2%) humidity. Considering standard deviation, it is considered that increase in weight is less than 0.2%.

fumarate
hygroscopicity (result in words) [1]: undesirable hygroscopicity

L-lactate
hygroscopicity (result in words) [1]: undesirable hygroscopicity

O=C1Cc2cc(CCN3CCN(c4nsc5ccccc45)CC3)c(Cl)cc2N1 [Ziprasidone, 5-[2-[4-(1,2-benzisothiazol-3-yl)piperazin-1-yl]ethyl]-6-chloroindolin-2-one]
half-life ([2]; in vivo): 6 to 7 h
Oral bioavailability ([2]; taken with food): approximately 60%
protein binding [3]: extensive

Cc1ccc2oc(N3CCN4CCC3CC4)nc2n1 [benzoate salt of Formula I, 4-(5-methyloxazolo[4,5-b]pyridin-2-yl)-1,4-diazabicyclo[3.2.2]nonane benzoate]
increase in weight in moisture sorption analysis ([4]; at 90±2% relative humidity, isothermal 24.9±0.1° C., from approximately 1% to 90% (±2%) humidity): less than 0.1%
hygroscopicity (result in words) [4]: relatively non-hygroscopic
hygroscopicity (result in words) ([4]; listed as 4-(5-methyloxazolo[4,5-b]pyridin-2-yl)-1,4-diazabicyclo[3.2.2]nonane benzoate Fo): non-hygroscopic
